In ChEMBL document CHEMBL4507317, “Data for DCP probe BAY-899” (2021):

Assays:
[1] = target: Sigma intracellular receptor 2 (Homo sapiens, UniProt Q5BJF2); experiment: GPCRScan assay: inhibition of Sigma 2; parameters: radioligand conc. used [nm] 5.0, parental cells HEKT
[2] = tested on: Tyrosine-protein kinase ABL1 (Homo sapiens), P00519 [F317I]; conditions: Compound concentration 1000.0 nM
[3] = tested on: Tyrosine-protein kinase ABL1 (Homo sapiens), P00519 [F317L]; conditions: Compound concentration 1000.0 nM
[4] = target: Activin receptor type-1-like (Homo sapiens) (UniProt P37023); conditions: Compound concentration 1000.0 nM
[5] = target: BMP-2-inducible protein kinase (Homo sapiens) (UniProt Q9NSY1); conditions: Compound concentration 1000.0 nM
[6] = target: Serine/threonine-protein kinase B-raf (Homo sapiens) (UniProt P15056); conditions: Compound concentration 1000.0 nM
[7] = target: Calcium/calmodulin-dependent protein kinase type II subunit beta (Homo sapiens) (UniProt Q13554); conditions: Compound concentration 1000.0 nM
[8] = target: Calcium/calmodulin-dependent protein kinase type II subunit delta (Homo sapiens) (UniProt Q13557); conditions: Compound concentration 1000.0 nM
[9] = target: Cyclin-dependent kinase 4 (Homo sapiens) (UniProt P11802); conditions: Compound concentration 1000.0 nM
[10] = target: Cyclin-dependent kinase 9 (Homo sapiens) (UniProt P50750); conditions: Compound concentration 1000.0 nM
[11] = target: Cyclin-dependent kinase-like 2 (Homo sapiens) (UniProt Q92772); conditions: Compound concentration 1000.0 nM
[12] = target: Serine/threonine-protein kinase Chk2 (Homo sapiens) (UniProt O96017); conditions: Compound concentration 1000.0 nM
Sequence of Serine/threonine-protein kinase Chk2 (Homo sapiens) (O96017 whole entry): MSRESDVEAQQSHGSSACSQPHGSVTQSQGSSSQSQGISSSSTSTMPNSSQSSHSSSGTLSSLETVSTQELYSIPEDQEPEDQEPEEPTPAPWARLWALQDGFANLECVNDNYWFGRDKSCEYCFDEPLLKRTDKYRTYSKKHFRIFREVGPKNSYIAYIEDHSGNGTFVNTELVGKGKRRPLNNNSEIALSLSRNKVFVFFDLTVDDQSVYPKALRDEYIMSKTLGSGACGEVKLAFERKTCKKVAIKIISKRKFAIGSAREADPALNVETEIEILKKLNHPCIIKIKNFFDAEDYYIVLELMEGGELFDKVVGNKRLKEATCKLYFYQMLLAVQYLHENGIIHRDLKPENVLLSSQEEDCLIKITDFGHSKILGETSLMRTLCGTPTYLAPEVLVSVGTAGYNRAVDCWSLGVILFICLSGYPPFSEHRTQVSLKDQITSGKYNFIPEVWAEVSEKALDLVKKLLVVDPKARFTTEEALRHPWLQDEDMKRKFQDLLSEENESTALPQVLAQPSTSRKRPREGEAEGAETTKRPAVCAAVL

[13] = target: Serine/threonine-protein kinase DCLK1 (Homo sapiens) (UniProt O15075); conditions: Compound concentration 1000.0 nM
[14] = tested on: Epidermal growth factor receptor (Homo sapiens), P00533 [UNDEFINED MUTATION]; conditions: Compound concentration 1000.0 nM
Sequence of Epidermal growth factor receptor (Homo sapiens), P00533 [UNDEFINED MUTATION] (P00533 whole entry, looked up, change not shown): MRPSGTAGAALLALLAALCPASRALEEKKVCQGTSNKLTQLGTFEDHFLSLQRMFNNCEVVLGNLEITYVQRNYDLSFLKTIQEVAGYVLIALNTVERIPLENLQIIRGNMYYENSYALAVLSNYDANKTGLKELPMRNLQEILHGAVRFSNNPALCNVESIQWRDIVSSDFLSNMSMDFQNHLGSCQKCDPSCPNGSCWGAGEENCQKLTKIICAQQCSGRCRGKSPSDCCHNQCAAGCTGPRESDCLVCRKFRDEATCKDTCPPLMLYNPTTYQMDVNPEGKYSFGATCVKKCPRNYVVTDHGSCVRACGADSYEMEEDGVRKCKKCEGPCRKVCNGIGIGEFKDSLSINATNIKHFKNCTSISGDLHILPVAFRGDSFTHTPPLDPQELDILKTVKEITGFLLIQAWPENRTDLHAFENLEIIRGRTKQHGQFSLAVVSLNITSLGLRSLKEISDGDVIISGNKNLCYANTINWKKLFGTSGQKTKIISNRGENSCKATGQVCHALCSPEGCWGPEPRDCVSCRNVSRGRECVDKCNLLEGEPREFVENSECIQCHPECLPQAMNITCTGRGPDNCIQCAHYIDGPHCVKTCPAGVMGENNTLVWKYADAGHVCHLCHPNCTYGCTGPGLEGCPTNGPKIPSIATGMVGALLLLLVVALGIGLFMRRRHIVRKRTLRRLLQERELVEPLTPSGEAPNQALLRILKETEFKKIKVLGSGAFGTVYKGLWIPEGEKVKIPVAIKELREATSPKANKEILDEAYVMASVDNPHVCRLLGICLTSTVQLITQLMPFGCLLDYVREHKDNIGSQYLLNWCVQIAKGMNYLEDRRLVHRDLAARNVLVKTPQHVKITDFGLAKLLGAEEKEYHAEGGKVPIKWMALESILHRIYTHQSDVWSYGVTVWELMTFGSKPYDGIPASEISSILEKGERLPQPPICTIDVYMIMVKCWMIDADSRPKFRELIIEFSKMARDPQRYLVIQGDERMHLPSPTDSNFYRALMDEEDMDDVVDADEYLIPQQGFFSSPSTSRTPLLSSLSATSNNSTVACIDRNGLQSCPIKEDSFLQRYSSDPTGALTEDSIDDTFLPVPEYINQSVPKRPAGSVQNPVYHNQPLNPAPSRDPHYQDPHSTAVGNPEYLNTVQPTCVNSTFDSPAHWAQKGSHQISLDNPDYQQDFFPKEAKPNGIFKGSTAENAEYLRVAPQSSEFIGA

[15] = target: Mitogen-activated protein kinase 7 (Homo sapiens) (UniProt Q13164); conditions: Compound concentration 1000.0 nM
[16] = target: Tyrosine-protein kinase Fes/Fps (Homo sapiens) (UniProt P07332); conditions: Compound concentration 1000.0 nM
[17] = target: G protein-coupled receptor kinase 4 (Homo sapiens) (UniProt P32298); conditions: Compound concentration 1000.0 nM
[18] = target: Insulin-like growth factor 1 receptor (Homo sapiens) (UniProt P08069); conditions: Compound concentration 1000.0 nM
[19] = target: Inhibitor of nuclear factor kappa-B kinase subunit beta (Homo sapiens) (UniProt O14920); conditions: Compound concentration 1000.0 nM
[20] = tested on: Mast/stem cell growth factor receptor Kit (Homo sapiens), P10721 [V559D]; conditions: Compound concentration 1000.0 nM
[21] = target: Serine/threonine-protein kinase LATS1 (Homo sapiens) (UniProt O95835); conditions: Compound concentration 1000.0 nM
[22] = target: Leucine-rich repeat serine/threonine-protein kinase 2 (Homo sapiens) (UniProt Q5S007); conditions: Compound concentration 1000.0 nM
[23] = target: Tyrosine-protein kinase Lyn (Homo sapiens) (UniProt P07948); conditions: Compound concentration 1000.0 nM
[24] = target: Mitogen-activated protein kinase kinase kinase kinase 2 (Homo sapiens) (UniProt Q12851); conditions: Compound concentration 1000.0 nM
[25] = target: Dual specificity mitogen-activated protein kinase kinase 3 (Homo sapiens) (UniProt P46734); conditions: Compound concentration 1000.0 nM
[26] = target: MAP kinase-interacting serine/threonine-protein kinase 2 (Homo sapiens) (UniProt Q9HBH9); conditions: Compound concentration 1000.0 nM
[27] = tested on: Phosphatidylinositol 4,5-bisphosphate 3-kinase catalytic subunit alpha isoform (Homo sapiens), P42336 [C420R]; conditions: Compound concentration 1000.0 nM
[28] = target: Serine/threonine-protein kinase pim-1 (Homo sapiens) (UniProt P11309); conditions: Compound concentration 1000.0 nM
Sequence of Serine/threonine-protein kinase pim-1 (Homo sapiens) (P11309 whole entry, looked up): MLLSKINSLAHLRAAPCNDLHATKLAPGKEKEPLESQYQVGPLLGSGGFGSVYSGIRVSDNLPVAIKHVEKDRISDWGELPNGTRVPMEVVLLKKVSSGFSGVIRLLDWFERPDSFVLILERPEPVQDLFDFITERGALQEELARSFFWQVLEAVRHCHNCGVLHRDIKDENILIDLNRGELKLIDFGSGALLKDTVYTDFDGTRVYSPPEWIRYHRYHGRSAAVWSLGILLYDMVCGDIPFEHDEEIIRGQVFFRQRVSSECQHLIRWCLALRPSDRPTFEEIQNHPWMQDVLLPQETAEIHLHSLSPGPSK

[29] = target: Phosphatidylinositol 4-phosphate 5-kinase type-1 alpha (Homo sapiens) (UniProt Q99755); conditions: Compound concentration 1000.0 nM
[30] = target: Serine/threonine-protein kinase PRP4 homolog (Homo sapiens) (UniProt Q13523); conditions: Compound concentration 1000.0 nM
Sequence of Serine/threonine-protein kinase PRP4 homolog (Homo sapiens) (Q13523 whole entry): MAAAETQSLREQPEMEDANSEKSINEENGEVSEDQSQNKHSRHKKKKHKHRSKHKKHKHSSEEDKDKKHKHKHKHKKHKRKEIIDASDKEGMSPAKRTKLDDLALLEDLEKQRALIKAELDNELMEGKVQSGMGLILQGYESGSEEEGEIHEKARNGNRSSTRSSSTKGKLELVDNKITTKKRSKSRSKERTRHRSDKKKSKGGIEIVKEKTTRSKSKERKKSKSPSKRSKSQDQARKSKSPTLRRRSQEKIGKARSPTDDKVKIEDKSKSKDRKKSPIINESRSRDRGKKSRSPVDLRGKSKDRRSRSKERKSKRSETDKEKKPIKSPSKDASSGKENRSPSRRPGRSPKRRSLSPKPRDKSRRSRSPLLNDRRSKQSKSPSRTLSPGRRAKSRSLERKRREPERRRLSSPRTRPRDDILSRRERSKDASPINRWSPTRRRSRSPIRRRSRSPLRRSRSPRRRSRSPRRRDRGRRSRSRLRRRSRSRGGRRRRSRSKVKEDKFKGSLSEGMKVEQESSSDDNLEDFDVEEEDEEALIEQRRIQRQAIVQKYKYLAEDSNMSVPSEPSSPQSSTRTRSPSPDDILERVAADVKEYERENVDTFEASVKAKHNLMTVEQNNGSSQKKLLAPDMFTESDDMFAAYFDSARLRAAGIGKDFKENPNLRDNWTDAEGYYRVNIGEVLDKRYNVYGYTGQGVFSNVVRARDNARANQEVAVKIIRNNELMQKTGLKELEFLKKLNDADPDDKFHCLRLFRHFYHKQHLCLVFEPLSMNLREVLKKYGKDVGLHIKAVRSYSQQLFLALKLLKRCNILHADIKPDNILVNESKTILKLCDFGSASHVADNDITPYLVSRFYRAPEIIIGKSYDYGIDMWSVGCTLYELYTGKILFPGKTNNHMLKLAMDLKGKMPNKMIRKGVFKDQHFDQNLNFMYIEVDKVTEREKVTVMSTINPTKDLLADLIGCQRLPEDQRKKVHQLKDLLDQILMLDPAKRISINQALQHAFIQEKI

[31] = target: RAF proto-oncogene serine/threonine-protein kinase (Homo sapiens) (UniProt P04049); conditions: Compound concentration 1000.0 nM
[32] = target: Rho-associated protein kinase 2 (Homo sapiens) (UniProt O75116); conditions: Compound concentration 1000.0 nM
[33] = target: Ribosomal protein S6 kinase alpha-6 (Homo sapiens) (UniProt Q9UK32); conditions: Compound concentration 1000.0 nM
[34] = target: Proto-oncogene tyrosine-protein kinase Src (Homo sapiens) (UniProt P12931); conditions: Compound concentration 1000.0 nM
[35] = target: TGF-beta receptor type-1 (Homo sapiens) (UniProt P36897); conditions: Compound concentration 1000.0 nM
Sequence of TGF-beta receptor type-1 (Homo sapiens) (P36897 whole entry): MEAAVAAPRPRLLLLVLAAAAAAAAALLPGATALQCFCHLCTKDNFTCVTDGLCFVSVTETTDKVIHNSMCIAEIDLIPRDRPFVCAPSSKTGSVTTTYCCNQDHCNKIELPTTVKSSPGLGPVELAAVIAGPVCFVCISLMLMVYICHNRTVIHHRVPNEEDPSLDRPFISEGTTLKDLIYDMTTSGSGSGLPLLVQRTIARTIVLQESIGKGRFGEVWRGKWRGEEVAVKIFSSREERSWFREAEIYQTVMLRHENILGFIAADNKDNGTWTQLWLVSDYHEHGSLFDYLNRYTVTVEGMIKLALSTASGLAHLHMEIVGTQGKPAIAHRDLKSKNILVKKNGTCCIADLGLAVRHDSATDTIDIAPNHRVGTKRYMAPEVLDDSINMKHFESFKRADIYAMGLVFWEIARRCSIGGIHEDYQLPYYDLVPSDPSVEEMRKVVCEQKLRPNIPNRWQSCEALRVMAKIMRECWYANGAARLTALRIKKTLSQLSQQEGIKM

[36] = target: Tyrosine-protein kinase receptor Tie-1 (Homo sapiens) (UniProt P35590); conditions: Compound concentration 1000.0 nM
[37] = target: Serine/threonine-protein kinase tousled-like 2 (Homo sapiens) (UniProt Q86UE8); conditions: Compound concentration 1000.0 nM
[38] = target: Non-receptor tyrosine-protein kinase TNK1 (Homo sapiens) (UniProt Q13470); conditions: Compound concentration 1000.0 nM
[39] = target: Serine/threonine-protein kinase ULK3 (Homo sapiens) (UniProt Q6PHR2); conditions: Compound concentration 1000.0 nM
[40] = target: Serine/threonine-protein kinase VRK2 (Homo sapiens) (UniProt Q86Y07); conditions: Compound concentration 1000.0 nM
[41] = target: Serine/threonine-protein kinase WNK3 (Homo sapiens) (UniProt Q9BYP7); conditions: Compound concentration 1000.0 nM
[42] = target: Serine/threonine-protein kinase 32C (Homo sapiens) (UniProt Q86UX6); conditions: Compound concentration 1000.0 nM
[43] = target: Serine/threonine-protein kinase 25 (Homo sapiens) (UniProt O00506); conditions: Compound concentration 1000.0 nM
Sequence of Serine/threonine-protein kinase 25 (Homo sapiens) (O00506 whole entry, looked up): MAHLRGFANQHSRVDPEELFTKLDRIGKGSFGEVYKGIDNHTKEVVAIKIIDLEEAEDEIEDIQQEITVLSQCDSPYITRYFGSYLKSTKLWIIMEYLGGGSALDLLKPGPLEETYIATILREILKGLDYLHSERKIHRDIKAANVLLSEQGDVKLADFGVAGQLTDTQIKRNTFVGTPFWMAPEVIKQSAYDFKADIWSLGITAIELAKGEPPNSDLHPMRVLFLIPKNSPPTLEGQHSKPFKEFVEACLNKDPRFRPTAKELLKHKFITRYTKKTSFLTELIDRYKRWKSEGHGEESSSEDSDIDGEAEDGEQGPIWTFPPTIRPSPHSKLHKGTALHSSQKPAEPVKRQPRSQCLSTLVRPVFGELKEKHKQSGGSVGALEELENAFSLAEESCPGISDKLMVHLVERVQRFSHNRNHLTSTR

[44] = target: Tyrosine-protein kinase ZAP-70 (Homo sapiens) (UniProt P43403); conditions: Compound concentration 1000.0 nM
Sequence of Tyrosine-protein kinase ZAP-70 (Homo sapiens) (P43403 whole entry): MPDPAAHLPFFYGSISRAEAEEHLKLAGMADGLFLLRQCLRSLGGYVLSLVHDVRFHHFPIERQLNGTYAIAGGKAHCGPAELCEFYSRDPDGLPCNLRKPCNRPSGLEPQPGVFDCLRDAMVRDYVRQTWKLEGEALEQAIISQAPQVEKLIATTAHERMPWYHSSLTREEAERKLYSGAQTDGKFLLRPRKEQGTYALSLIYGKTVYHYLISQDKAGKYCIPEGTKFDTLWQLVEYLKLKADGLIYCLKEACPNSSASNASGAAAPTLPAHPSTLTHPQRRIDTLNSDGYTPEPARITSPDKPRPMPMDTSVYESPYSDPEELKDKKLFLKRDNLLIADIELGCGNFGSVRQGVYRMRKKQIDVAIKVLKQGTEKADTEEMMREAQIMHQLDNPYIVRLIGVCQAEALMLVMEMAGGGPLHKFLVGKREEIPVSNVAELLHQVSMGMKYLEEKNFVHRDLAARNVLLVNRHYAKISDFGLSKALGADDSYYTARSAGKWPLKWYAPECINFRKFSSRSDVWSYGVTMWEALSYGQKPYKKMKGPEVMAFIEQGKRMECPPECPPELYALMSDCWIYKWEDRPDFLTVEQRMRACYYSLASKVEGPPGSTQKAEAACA

[45] = target: Mu-type opioid receptor (Homo sapiens) (UniProt P35372); conditions: Compound concentration 10.0 uM
Sequence of Mu-type opioid receptor (Homo sapiens) (P35372 whole entry): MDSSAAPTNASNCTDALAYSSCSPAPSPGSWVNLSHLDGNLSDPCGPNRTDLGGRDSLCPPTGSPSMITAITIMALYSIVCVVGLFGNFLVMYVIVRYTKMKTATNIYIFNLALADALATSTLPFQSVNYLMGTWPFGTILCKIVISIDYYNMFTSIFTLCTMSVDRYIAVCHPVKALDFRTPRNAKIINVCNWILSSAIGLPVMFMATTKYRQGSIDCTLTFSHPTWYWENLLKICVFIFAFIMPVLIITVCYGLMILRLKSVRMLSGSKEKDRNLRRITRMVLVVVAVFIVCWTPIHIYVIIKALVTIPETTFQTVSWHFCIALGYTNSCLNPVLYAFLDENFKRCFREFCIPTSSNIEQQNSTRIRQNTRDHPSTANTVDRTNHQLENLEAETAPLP

SMILES: O=C(Nc1ccc(Oc2ccc(F)cc2)cc1)N1CCc2ncccc2[C@H]1c1ccc(F)cc1 [BAY-897]
- Ki [1]: 676 nM
- residual activity [2]: 94%
- residual activity [3]: 86%
- residual activity [4]: 81%
- residual activity [5]: 94%
- residual activity [6]: 85%
- residual activity [7]: 100%
- residual activity [8]: 89%
- residual activity [9]: 100%
- residual activity [10]: 87%
- residual activity [11]: 77%
- residual activity [12]: 94%
- residual activity [13]: 100%
- residual activity [14]: 100%
- residual activity [15]: 96%
- residual activity [16]: 100%
- residual activity [17]: 93%
- residual activity [18]: 100%
- residual activity [19]: 100%
- residual activity [20]: 100%
- residual activity [21]: 86%
- residual activity [22]: 76%
- residual activity [23]: 95%
- residual activity [24]: 95%
- residual activity [25]: 88%
- residual activity [26]: 91%
- residual activity [27]: 100%
- residual activity [28]: 99%
- residual activity [29]: 95%
- residual activity [30]: 100%
- residual activity [31]: 100%
- residual activity [32]: 93%
- residual activity [33]: 91%
- residual activity [34]: 91%
- residual activity [35]: 85%
- residual activity [36]: 85%
- residual activity [37]: 100%
- residual activity [38]: 96%
- residual activity [39]: 99%
- residual activity [40]: 97%
- residual activity [41]: 94%
- residual activity [42]: 75%
- residual activity [43]: 100%
- residual activity [44]: 91%
- inhibition [45]: 37.1%

SMILES: O=C(Nc1cnc(Oc2ccc(F)cc2)nc1)N1CCc2ncccc2[C@@H]1c1ccc(F)cc1 [BAY-899]
- Ki [1]: 2050 nM
- residual activity [2]: 99%
- residual activity [3]: 83%
- residual activity [4]: 99%
- residual activity [5]: 93%
- residual activity [6]: 74%
- residual activity [7]: 92%
- residual activity [8]: 92%
- residual activity [9]: 100%
- residual activity [10]: 93%
- residual activity [11]: 33%
- residual activity [12]: 92%
- residual activity [13]: 83%
- residual activity [14]: 100%
- residual activity [15]: 96%
- residual activity [16]: 100%
- residual activity [17]: 67%
- residual activity [18]: 100%
- residual activity [19]: 100%
- residual activity [20]: 100%
- residual activity [21]: 100%
- residual activity [22]: 83%
- residual activity [23]: 82%
- residual activity [24]: 100%
- residual activity [25]: 76%
- residual activity [26]: 94%
- residual activity [27]: 100%
- residual activity [28]: 91%
- residual activity [29]: 100%
- residual activity [30]: 90%
- residual activity [31]: 100%
- residual activity [32]: 100%
- residual activity [33]: 100%
- residual activity [34]: 93%
- residual activity [35]: 90%
- residual activity [36]: 88%
- residual activity [37]: 89%
- residual activity [38]: 97%
- residual activity [39]: 95%
- residual activity [40]: 100%
- residual activity [41]: 93%
- residual activity [42]: 96%
- residual activity [43]: 82%
- residual activity [44]: 93%
- inhibition [45]: 28.1%
